Data taken from PMC12221116, “Novel Quinazolinones Active against Multidrug‐Resistant Mycobacterium Tuberculosis: Synthesis, Antimicrobial Evaluation, and in Silico Exploration of Penicillin‐Binding Protein 1A as a Potential Target” (Chemmedchem, 2025).
≈ marks a conversion by molar mass, not a printed value. Where two headings read alike, the source gives them in different places.

Columns and labels:
M. smegmatis = assay: Microdilution broth resazurin assay, MIC; type: cell-based, Mycolicibacterium smegmatis
Mtb H37Ra = assay: Microdilution broth resazurin assay, MIC; type: cell-based, Mycobacterium tuberculosis
M. kansasii = assay: Microplate Alamar Blue assay, MIC; type: cell-based, Mycobacterium kansasii; conditions: for MIC: Mycobacterium kansasii, read-out: Antimycobacterial Activity MIC M. kans.
M. avium = assay: Microdilution broth resazurin assay, MIC; type: cell-based, Mycobacterium avium
M. aurum = assay: Microdilution broth resazurin assay, MIC; type: cell-based, Mycolicibacterium aurum
Mtb H37Rv = assay: Microplate Alamar Blue assay, MIC; type: cell-based, Mycobacterium tuberculosis; conditions: for MIC: Mycobacterium tuberculosis, H37RV
[1] = Mycolicibacterium smegmatis, DSM43465; internal quality controls (standards); read-out: MINIMUM INHIBITORY CONCENTRATION Mycolicibacterium smegmatis DSM 43465
[2] = Mycolicibacterium smegmatis; read-out: Antimycobacterial Activity MIC M. smeg.
[3] = Mycobacterium tuberculosis, H37RA, read-out: Antimycobacterial Activity MIC Mtb H37Ra
[4] = Mycobacterium tuberculosis, H37RA; internal quality controls (standards); read-out: MINIMUM INHIBITORY CONCENTRATION Mycobacterium tuberculosis H37Ra
[5] = Mycobacterium avium, DSM44156; internal quality controls (standards); read-out: MINIMUM INHIBITORY CONCENTRATION Mycobacterium avium DSM 44156
[6] = Mycobacterium avium; read-out: Antimycobacterial Activity MIC M. avium
[7] = Mycolicibacterium aurum, DSM43999; internal quality controls (standards); read-out: MINIMUM INHIBITORY CONCENTRATION Mycolicibacterium aurum DSM 43999
[8] = Mycolicibacterium aurum; read-out: Antimycobacterial Activity MIC M. aurum
[9] = Table S5 matching pairs series A and B
[10] = Mycobacterium avium, read-out: Antimycobacterial Activity MIC M. avium
[11] = Microplate Alamar Blue assay, read-out: Antimycobacterial Activity MIC Mtb H37Rv
[12] = read-out: Antimycobacterial Activity MIC Mtb H37Rv, Table S5 matching pairs series A and B
[13] = Mycolicibacterium aurum, read-out: Antimycobacterial Activity MIC M. aurum
[14] = Mycolicibacterium smegmatis, read-out: Antimycobacterial Activity MIC M. smeg.
[15] = Mycobacterium tuberculosis, H37RA; read-out: Antimycobacterial Activity MIC Mtb H37Ra

Structure (SMILES)	MIC (M. smegmatis; [2])	MIC (Mtb H37Ra; [3])	MIC (M. kansasii)	MIC (M. avium; [6])	Antimycobacterial Activity MIC M. smeg. (M. smegmatis)	Antimycobacterial Activity MIC Mtb H37Ra (Mtb H37Ra)	Antimycobacterial Activity MIC M. kans. (M. kansasii)	Antimycobacterial Activity MIC M. avium (M. avium)	Antimycobacterial Activity MIC Mtb H37Rv (Mtb H37Rv; Microplate Alamar Blue assay)	Antimycobacterial Activity MIC M. aurum (M. aurum)	MIC (Mtb H37Rv; [11])	MIC (M. aurum; [13])	MIC (M. smegmatis; [14])	MIC (Mtb H37Ra; [15])	also measured
O=C(O)c1cn(C2CC2)c2cc(N3CCNCC3)c(F)cc2c1=O [CIP, ciprofloxacin, reference compound]	0.125 µg/mL (≈ 0.377 µM)	0.25 µg/mL (≈ 0.754 µM)	0.25 µg/mL (≈ 0.754 µM)	1.56 µg/mL (≈ 4.71 µM)											MIC (M. smegmatis; [1]): 0.0625 to 0.125 µg/mL (≈ 0.189 to 0.377 µM); MIC (Mtb H37Ra; [4]): 0.125 to 0.25 µg/mL (≈ 0.377 to 0.754 µM); MIC (M. avium; [5]): 0.5 µg/mL (≈ 1.51 µM); MIC (M. aurum; [7]): 0.0078 to 0.0156 µg/mL (≈ 0.0235 to 0.0471 µM); MIC (M. aurum; [8]): 0.0156 µg/mL (≈ 0.0472 µM)
COc1ccc(Cn2c(C)nc3ccccc3c2=O)c(OC)c1 [Compound 1]					≥500 µg/mL	≥500 µg/mL	>100 µg/mL	≥500 µg/mL	>100 µg/mL	≥500 µg/mL					Antimycobacterial Activity MIC M. smeg. (M. smegmatis; [9]): ≥ 500 µg/mL; Antimycobacterial Activity MIC Mtb H37Ra (Mtb H37Ra; [9]): ≥ 500 µg/mL; Antimycobacterial Activity MIC M. avium (M. avium; [9]): ≥ 500 µg/mL; Antimycobacterial Activity MIC M. aurum (M. aurum; [9]): ≥ 500 µg/mL
Cc1nc2ccccc2c(=O)n1Cc1cccc(F)c1 [Compound 4]					250 µg/mL	250 µg/mL	50 µg/mL	125 µg/mL	100 µg/mL	500 µg/mL					
Cc1nc2ccccc2c(=O)n1Cc1ccc(C(F)(F)F)cc1 [Compound 7]					250 µg/mL	62.5 µg/mL	>100 µg/mL	125 µg/mL	>100 µg/mL	125 µg/mL					Antimycobacterial Activity MIC M. smeg. (M. smegmatis; [9]): 250 µg/mL; Antimycobacterial Activity MIC Mtb H37Ra (Mtb H37Ra; [9]): 62.5 µg/mL; Antimycobacterial Activity MIC M. avium (M. avium; [9]): 125 µg/mL; Antimycobacterial Activity MIC M. aurum (M. aurum; [9]): 125 µg/mL
Cc1nc2ccccc2c(=O)n1Cc1ccc2ccccc2c1 [Compound 8]	≥ 500 µg/mL	≥ 250 µg/mL	50 µg/mL (≈ 166 µM)			≥250 µg/mL		62.5 µg/mL		62.5 µg/mL	> 100 µg/mL	62.5 µg/mL (≈ 208 µM)			Antimycobacterial Activity MIC M. smeg. (M. smegmatis; [9]): ≥ 500 µg/mL; Antimycobacterial Activity MIC M. kans. (M. kansasii; [9]): 50 µg/mL; MIC (M. avium; [10]): 62.5 µg/mL (≈ 208 µM); MIC (Mtb H37Rv; [12]): > 100 µg/mL
Cc1nc2ccccc2c(=O)n1Cc1cc(F)cc(C(F)(F)F)c1 [Compound 9]					≥500 µg/mL	125 µg/mL	>100 µg/mL	62.5 µg/mL	>100 µg/mL	62.5 µg/mL					
Cc1nc2ccccc2c(=O)n1Cc1ccc(Cl)cc1Cl [Compound 10]					≥250 µg/mL	≥250 µg/mL	>100 µg/mL	≥250 µg/mL	>100 µg/mL	≥250 µg/mL					
CC1Nc2ccccc2C(=O)N1Cc1ccc(Cl)c(Cl)c1 (centres unmarked) [Compound 11]	≥ 250 µg/mL	≥ 250 µg/mL	> 100 µg/mL	≥ 250 µg/mL		≥250 µg/mL					> 100 µg/mL				Antimycobacterial Activity MIC M. smeg. (M. smegmatis; [9]): ≥ 250 µg/mL; Antimycobacterial Activity MIC M. avium (M. avium; [9]): ≥ 250 µg/mL; MIC (Mtb H37Rv; [12]): > 100 µg/mL; MIC (M. aurum; [8]): ≥ 250 µg/mL; Antimycobacterial Activity MIC M. aurum (M. aurum; [9]): ≥ 250 µg/mL
Cc1nc2cc(Cl)ccc2c(=O)n1Cc1cccc(C(=O)O)c1 [Compound 12]			> 100 µg/mL								> 100 µg/mL	≥ 62.5 µg/mL	≥ 62.5 µg/mL	≥ 62.5 µg/mL	MIC (M. avium; [10]): ≥ 62.5 µg/mL
Cc1nc2cc(Cl)ccc2c(=O)n1Cc1cccc(O)c1 [Compound 13]			> 100 µg/mL	62.5 µg/mL (≈ 208 µM)							50 µg/mL (≈ 166 µM)	≥ 62.5 µg/mL	≥ 62.5 µg/mL	≥ 62.5 µg/mL	
Cc1nc2cc(Cl)ccc2c(=O)n1Cc1ccc(O)cc1 [Compound 14]			> 100 µg/mL								> 100 µg/mL	62.5 µg/mL (≈ 208 µM)	62.5 µg/mL (≈ 208 µM)	62.5 µg/mL (≈ 208 µM)	MIC (M. avium; [10]): 62.5 µg/mL (≈ 208 µM)
COc1ccc(Cn2c(C)nc3cc(Cl)ccc3c2=O)c(OC)c1 [Compound 15]		≥ 125 µg/mL	> 100 µg/mL		≥125 µg/mL	≥125 µg/mL		≥125 µg/mL		≥125 µg/mL	> 100 µg/mL	≥ 125 µg/mL	≥ 125 µg/mL		MIC (M. avium; [10]): ≥ 125 µg/mL; MIC (Mtb H37Rv; [12]): > 100 µg/mL
COc1cccc(Cn2c(C)nc3cc(Cl)ccc3c2=O)c1 [Compound 16]		62.5 µg/mL (≈ 199 µM)	> 100 µg/mL	≥ 500 µg/mL	≥125 µg/mL	62.5 µg/mL				≥125 µg/mL	> 100 µg/mL	≥ 125 µg/mL	≥ 125 µg/mL		Antimycobacterial Activity MIC M. avium (M. avium; [9]): ≥ 500 µg/mL; MIC (Mtb H37Rv; [12]): > 100 µg/mL
Cc1nc2cc(Cl)ccc2c(=O)n1Cc1ccccc1F [Compound 18]	≥ 500 µg/mL		> 100 µg/mL	≥ 500 µg/mL							> 100 µg/mL			≥ 500 µg/mL	MIC (M. aurum; [8]): ≥ 500 µg/mL
CO[C@H]1/C=C/O[C@@]2(C)Oc3c(C)c(O)c4c(O)c(c(/C=N/N5CCN(C)CC5)c(O)c4c3C2=O)NC(=O)/C(C)=C\C=C\[C@H](C)[C@H](O)[C@@H](C)[C@@H](O)[C@@H](C)[C@H](OC(C)=O)[C@@H]1C [RIF, rifampicin]	12.5 µg/mL (≈ 15.2 µM)		0.025 µg/mL (≈ 0.0304 µM)	0.125 µg/mL (≈ 0.152 µM)										0.00156 µg/mL (≈ 0.0019 µM)	MIC (M. smegmatis; [1]): 12.5 to 25 µg/mL (≈ 15.2 to 30.4 µM); MIC (Mtb H37Ra; [4]): 0.00156 to 0.0031 µg/mL (≈ 0.0019 to 0.00377 µM); MIC (M. avium; [5]): 0.0625 to 0.125 µg/mL (≈ 0.0759 to 0.152 µM); MIC (M. aurum; [7]): 0.39 to 0.78 µg/mL (≈ 0.474 to 0.948 µM); MIC (M. aurum; [8]): 0.39 µg/mL (≈ 0.474 µM)
